Drawing on patent US11084800B2 (Achillion Pharmaceuticals, Inc., priority 2017, dated 2021), this text covers IC50 for 21 molecules.

Sequence of Human Factor D (P00746 26-253): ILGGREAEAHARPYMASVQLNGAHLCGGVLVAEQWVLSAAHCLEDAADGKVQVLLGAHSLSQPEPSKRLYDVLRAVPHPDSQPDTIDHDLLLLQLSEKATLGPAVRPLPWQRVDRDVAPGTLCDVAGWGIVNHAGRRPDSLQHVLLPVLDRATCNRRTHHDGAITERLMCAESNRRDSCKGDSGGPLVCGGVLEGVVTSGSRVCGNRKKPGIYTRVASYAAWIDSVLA

The assay addresses Human Factor D (Homo sapiens (Human), UniProt P00746). Description: Human Factor D Assay. It is filed as biochemical. The conditions noted are these: Table 6; Factor D 80 nM, substrate Z-L-Lys-SBz; read-out: IC50. The method in brief:
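Thioester substrate Z-L-Lys-SBz (100 μM) with Ellman's reagent DTNB (100 μM) reports activity of 80 nM human serum-derived enzyme, kinetically at 405 nm over 30 min. Compound preincubated 5 min, room temperature, pH 7.5 Tris/1 M NaCl; IC50 by nonlinear fit of rates.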
The IC50 is the concentration needed to halve the response being measured. As to `CC(=O)c1nn(CC(=O)N2C[C@H]3C[C@H]3[C@H]2C(=O)Nc2nc(Br)ccc2C)c2ncc(-c3cnc(C)nc3)cc12` [Compound 183, (1R,2S,5S)-3-(2-(3-Acetyl-5-(2-methylpyrimidin-5-yl)-1H-pyrazolo[3,4-b]pyridin-1-yl)acetyl)-N-(6-bromo-3-methylpyridin-2-yl)-3-azabicyclo[3.1.0]hexane-2-carboxamide], the IC50 is below 1000 nM.
Regarding `CC(=O)c1nn(CC(=O)N2[C@H](C(=O)Nc3nc(Br)ccc3C)C[C@@]3(C)C[C@@H]23)c2ccc(-c3cnc(C)nc3)nc12` [Compound 184, (1R,3S,5R)-2-(2-(3-Acetyl-5-(2-methylpyrimidin-5-yl)-1H-pyrazolo[4,3-b]pyridin-1-yl)acetyl)-N-(6-bromo-3-methylpyridin-2-yl)-5-methyl-2-azabicyclo[3.1.0]hexane-3-carboxamide], the IC50 was 1000 to 10000 nM.
As for `CC(=O)c1nn(CC(=O)N2[C@H](C(=O)Nc3nc(Br)c(F)cc3C)C[C@@]3(C)C[C@@H]23)c2ccc(-c3cnc(C)nc3)nc12` [Compound 185, (1R,3S,5R)-2-(2-(3-Acetyl-5-(2-methylpyrimidin-5-yl)-1H-pyrazolo[4,3-b]pyridin-1-yl)acetyl)-N-(6-bromo-5-fluoro-3-methylpyridin-2-yl)-5-methyl-2-azabicyclo[3.1.0]hexane-3-carboxamide], the IC50 is 1000 to 10000 nM.
Regarding `CC(=O)c1nn(CC(=O)N2[C@H](C(=O)Nc3nc(Br)cc(C)c3C(F)F)C[C@@]3(C)C[C@@H]23)c2ccc(-c3cnc(C)nc3)cc12` [Compound 187, (1R,3S,5R)-2-(2-(3-Acetyl-5-(2-methylpyrimidin-5-yl)-1H-indazol-1-yl)acetyl)-N-(6-bromo-3-(difluoromethyl)-4-methylpyridin-2-yl)-5-methyl-2-azabicyclo[3.1.0]hexane-3-carboxamide], the IC50 was below 1000 nM.
As to `C=CCCS(=O)(=O)N(C)C[C@@]12C[C@@H](C(=O)Nc3nc(Br)ccc3C=C)N(C(=O)Cn3nc(C(C)=O)c4cc(-c5cnc(C)nc5)ccc43)[C@@H]1C2` [Compound 188, (1R,3S,5R)-2-(2-(3-Acetyl-5-(2-methylpyrimidin-5-yl)-1H-indazol-1-yl)acetyl)-N-(6-bromo-3-vinylpyridin-2-yl)-5-((N-methylbut-3-en-1-ylsulfonamido)methyl)-2-azabicyclo[3.1.0]hexane-3-carboxamide], the concentration for half-maximal inhibition (IC50) is below 1000 nM.
Take `CC(=O)c1nn(CC(=O)N2[C@H](C(=O)Nc3nc(Br)ccc3CN3CCOCC3)C[C@@]3(C)C[C@@H]23)c2cnc(-c3cnc(C)nc3)cc12` [Compound 192, (1R,3S,5R)-2-(2-(3-Acetyl-5-(2-methylpyrimidin-5-yl)-1H-pyrazolo[3,4-c]pyridin-1-yl)acetyl)-N-(6-bromo-3-(morpholinomethyl)pyridin-2-yl)-5-methyl-2-azabicyclo[3.1.0]hexane-3-carboxamide]: the IC50 is below 1000 nM.
Regarding `COc1ncc(-c2cc3c(C(C)=O)nn(CC(=O)N4[C@H](C(=O)Nc5nc(Br)ccc5C)C[C@@]5(C)C[C@@H]45)c3cn2)cn1` [Compound 193, (1R,3S,5R)-2-(2-(3-Acetyl-5-(2-methoxypyrimidin-5-yl)-1H-pyrazolo[3,4-c]pyridin-1-yl)acetyl)-N-(6-bromo-3-methylpyridin-2-yl)-5-methyl-2-azabicyclo[3.1.0]hexane-3-carboxamide], the IC50 was below 1000 nM.
With `CC(=O)c1nn(CC(=O)N2[C@H](C(=O)Nc3nc(Br)ccc3C)C[C@@]3(C)C[C@@H]23)c2cnc(-c3cnc(N)nc3)cc12` [Compound 194, (1R,3S,5R)-2-(2-(3-Acetyl-5-(2-aminopyrimidin-5-yl)-1H-pyrazolo[3,4-c]pyridin-1-yl)acetyl)-N-(6-bromo-3-methylpyridin-2-yl)-5-methyl-2-azabicyclo[3.1.0]hexane-3-carboxamide], the IC50 was below 1000 nM.
To `CC(=O)c1nn(CC(=O)N2[C@H](C(=O)Nc3nc(Br)c(F)cc3C)C[C@@]3(C)C[C@@H]23)c2cnc(-c3cnc(N)nc3)cc12` [Compound 195, (1R,3S,5R)-2-(2-(3-Acetyl-5-(2-aminopyrimidin-5-yl)-1H-pyrazolo[3,4-c]pyridin-1-yl)acetyl)-N-(6-bromo-5-fluoro-3-methylpyridin-2-yl)-5-methyl-2-azabicyclo[3.1.0]hexane-3-carboxamide] belongs below 1000 nM; to `CC(=O)c1nn(CC(=O)N2[C@H](C(=O)Nc3nc(OC(F)(F)F)ccc3C)C[C@@]3(C)C[C@@H]23)c2ccc(-c3cnc(C)nc3)cc12` [Compound 196, (1R,3S,5R)-2-(2-(3-Acetyl-5-(2-methylpyrimidin-5-yl)-1H-indazol-1-yl)acetyl)-5-methyl-N-(3-methyl-6-(trifluoromethoxy)pyridin-2-yl)-2-azabicyclo[3.1.0]hexane-3-carboxamide], below 1000 nM; to `CC(=O)c1nn(CC(=O)N2[C@H](C(=O)Nc3nc(Br)ccc3C)C[C@@]3(c4cnco4)C[C@@H]23)c2ccc(-c3cnc(C)nc3)cc12` [Compound 197, (1R,3S,5S)-2-(2-(3-Acetyl-5-(2-methylpyrimidin-5-yl)-1H-indazol-1-yl)acetyl)-N-(6-bromo-3-methylpyridin-2-yl)-5-(oxazol-5-yl)-2-azabicyclo[3.1.0]hexane-3-carboxamide], below 1000 nM.
To `COc1ncc(-c2cc3c(C(C)=O)nn(CC(=O)N4[C@H](C(=O)Nc5nc(Br)c(F)cc5C)C[C@@]5(C)C[C@@H]45)c3cn2)cn1` [Compound 198, (1R,3S,5R)-2-(2-(3-Acetyl-5-(2-methoxypyrimidin-5-yl)-1H-pyrazolo[3,4-c]pyridin-1-yl)acetyl)-N-(6-bromo-5-fluoro-3-methylpyridin-2-yl)-5-methyl-2-azabicyclo[3.1.0]hexane-3-carboxamide] belongs below 1000 nM; to `CC(=O)c1nn(CC(=O)N2[C@H](C(=O)Nc3nc(Br)ccc3C)C[C@@]3(C)C[C@@H]23)c2cnc(-c3cnc(C)[n+]([O-])c3)cc12` [Compound 200, 5-(3-acetyl-1-(2-((1R,3S,5R)-3-((6-bromo-3-methylpyridin-2-yl)carbamoyl)-5-methyl-2-azabicyclo[3.1.0]hexan-2-yl)-2-oxoethyl)-1H-pyrazolo[3,4-c]pyridin-5-yl)-2-methylpyrimidine 1-oxide], below 1000 nM.
In the case of `CC(=O)c1nn(CC(=O)N2[C@H](C(=O)Nc3nc(Br)ccc3C)C[C@@]3(Cn4cc(C5CC5)nn4)C[C@@H]23)c2ccc(-c3cnc(C)nc3)cc12` [Compound 201, (1R,3S,5R)-2-(2-(3-acetyl-5-(2-methylpyrimidin-5-yl)-1H-indazol-1-yl)acetyl)-N-(6-bromo-3-methylpyridin-2-yl)-5-((4-cyclopropyl-1H-1,2,3-triazol-1-yl)methyl)-2-azabicyclo[3.1.0]hexane-3-carboxamide] it was below 1000 nM; in that of `CC(=O)c1nn(CC(=O)N2[C@H](C(=O)Nc3nc(Br)ccc3C)C[C@@]3(Cn4cc([Si](C)(C)C)nn4)C[C@@H]23)c2ccc(-c3cnc(C)nc3)cc12` [Compound 202, (1R,3S,5R)-2-(2-(3-acetyl-5-(2-methylpyrimidin-5-yl)-1H-indazol-1-yl)acetyl)-N-(6-bromo-3-methylpyridin-2-yl)-5-((4-(trimethylsilyl)-1H-1,2,3-triazol-1-yl)methyl)-2-azabicyclo[3.1.0]hexane-3-carboxamide], below 1000 nM; in that of `CC(=O)c1nn(CC(=O)N2[C@H](C(=O)Nc3nc(Br)ccc3C)C[C@@]3(Cn4ccnn4)C[C@@H]23)c2ccc(-c3cnc(C)nc3)cc12` [Compound 203, (1R,3S,5R)-5-((1H-1,2,3-triazol-1-yl)methyl)-2-(2-(3-acetyl-5-(2-methylpyrimidin-5-yl)-1H-indazol-1-yl)acetyl)-N-(6-bromo-3-methylpyridin-2-yl)-2-azabicyclo[3.1.0]hexane-3-carboxamide], below 1000 nM.
As to `CC(=O)c1nn(CC(=O)N2[C@H](C(=O)Nc3nc(Br)ccc3CN3CC4(COC4)C3)C[C@@]3(C)C[C@@H]23)c2ccc(-c3cnc(C)nc3)cc12` [Compound 204], the IC50 is below 1000 nM.
To `CC(=O)c1nn(CC(=O)N2[C@H](C(=O)Nc3nc(Br)ccc3C)C[C@@]3(C)C[C@@H]23)c2c(C)nc(-c3cnc(C)nc3)cc12` [Compound 205, (1R,3S,5R)-2-(2-(3-acetyl-7-methyl-5-(2-methylpyrimidin-5-yl)-1H-pyrazolo[3,4-c]pyridin-1-yl)acetyl)-N-(6-bromo-3-methylpyridin-2-yl)-5-methyl-2-azabicyclo[3.1.0]hexane-3-carboxamide] belongs below 1000 nM; to `CC(=O)c1nn(CC(=O)N2[C@H]3C[C@@]3(CN3C[C@H]4CCC[C@H]4C3)C[C@H]2C(=O)Nc2nc(Br)ccc2C)c2cnc(-c3cnc(C)nc3)cc12` [Compound 206, (1S,3S,5S)-2-(2-(3-acetyl-5-(2-methylpyrimidin-5-yl)-1H-pyrazolo[3,4-c]pyridin-1-yl)acetyl)-N-(6-bromo-3-methylpyridin-2-yl)-S-(((3aR,6a5)-hexahydrocyclopenta[c]pyrrol-2(1H)-yl)methyl)-2-azabicyclo[3.1.0]hexane-3-carboxamide], below 1000 nM; to `CC(=O)c1nn(CC(=O)N2[C@H]3C[C@@]3(CN3CC4(CCCC4)C3)C[C@H]2C(=O)Nc2nc(Br)ccc2C)c2cnc(-c3cnc(C)nc3)cc12` [Compound 207, (1S,3S,5S)-5-((2-azaspiro[3.4]octan-2-yl)methyl)-2-(2-(3-acetyl-5-(2-methylpyrimidin-5-yl)-1H-pyrazolo[3,4-c]pyridin-1-yl)acetyl)-N-(6-bromo-3-methylpyridin-2-yl)-2-], below 1000 nM.
`CC(=O)c1nn(CC(=O)N2[C@H](C(=O)Nc3nc(Br)ccc3C)C[C@@]3(C)C[C@@H]23)c2c(C)cc(-c3cnc(OC4COC4)nc3)cc12` [Compound 208, (1R,3S,5R)-2-(2-(3-acetyl-7-methyl-5-(2-(oxetan-3-yloxy)pyrimidin-5-yl)-1H-indazol-1-yl)acetyl)-N-(6-bromo-3-methylpyridin-2-yl)-5-methyl-2-azabicyclo[3.1.0]hexane-3-carboxamide]: the IC50 was below 1000 nM.
